Here are results for 20 molecules from US10640497B2, “Microbiocidal oxadiazole derivatives” (SYNGENTA PARTICIPATIONS AG, priority 2015, dated 2020).

For data set [1], the system named is Glomerella lagenarium (Colletotrichum lagenarium). Kind of data set: Fungicidal activity against Glomerella lagenarium (Colletotrichum lagenarium), liquid culture, cucumber, preventative (anthracnose). In kind it is cell-based. Particulars: Colletotrichum orbiculare, liquid culture (PDB), growth inhibition measured photometrically 3-4 days after application, compared to untreated control. In outline: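 Glomerella lagenarium conidia in potato dextrose broth were exposed in 96-well plates to test compound diluted from DMSO stock with 0.025% Tween20 and incubated at 24 °C. Growth inhibition was read photometrically 3–4 days after application, as percent activity relative to untreated check.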

The test system of another data set is Phakopsora pachyrhizi. The experiment in a line: Fungicidal activity against Phakopsora pachyrhizi, soybean, leaf disc preventative (Asian soybean rust). The note with it: foliar, 288 h, 12-14 days after application, compared to untreated control. In kind it is in vivo. In outline:
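Soybean leaf discs on water agar were sprayed with compound diluted in water, then inoculated one day later with a spore suspension on the lower leaf surface. After 24-36 h dark at 20 °C, 75% rh, discs were held at 20 °C, 12 h light/day. Percent disease control versus untreated assessed 12-14 days post-application.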

Data set [2] relates to Puccinia recondita f. sp. tritici. Kind of data set: Fungicidal activity against Puccinia recondita f. sp. tritici, wheat, leaf disc curative (brown rust). In kind it is in vivo. The note with it: foliar, 144 h, wheat leaf segments, curative (applied 1 day after inoculation), 6-8 days after application, compared to untreated control. A digest of the protocol:
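Wheat cv. Kanzler leaf segments on agar, inoculated with brown rust spores and kept dark at 19 °C, 75% rh; formulated compound sprayed 1 day after inoculation (curative). Incubated 19 °C, 75% rh, 12 h light/dark; percent disease control vs untreated scored 6–8 days after application.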

Data set [3] has the same test system. The experiment in a line: Fungicidal activity against Puccinia recondita f. sp. tritici, wheat, leaf disc preventative (brown rust). In kind it is in vivo. The note with it: foliar, wheat leaf segments, preventative (inoculated 1 day after application), 7-9 days after application, compared to untreated control. In outline:
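Wheat cv. Kanzler leaf segments on water agar sprayed with compound (DMSO stock diluted in water), then inoculated with spore suspension 1 day later. Incubated at 19 °C, 75% rh, 12 h light/12 h dark; percent disease control versus untreated scored at 7-9 days after application.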

Structures are written as SMILES.

For `O=C1CCON1Cc1ccc(-c2noc(C(F)(F)F)n2)cc1` [Compound A-5, 2-[[4-[5-(trifluoromethyl)-1,2,4-oxadiazol-3-yl]phenyl]methyl]isoxazolidin-3-one], the melting point fell in the range of 54 to 58 °C. In data set [1], this molecule showed an inhibition of growth at 20 ppm of at least 80%. In the data set on Phakopsora pachyrhizi, this molecule came in with a pest or weed control at 200 ppm of at least 80%. The pest or weed control at 200 ppm in data set [2] was at least 80%. Also, the pest or weed control at 200 ppm in data set [3] was at least 80%.

`CC1CCN(Cc2ccc(-c3noc(C(F)(F)F)n3)cc2)C1=O` (stereo not shown) [Compound A-7, 3-methyl-1-[[4-[5-(trifluoromethyl)-1,2,4-oxadiazol-3-yl]phenyl]methyl]pyrrolidin-2-one]: the melting point was in the range of 83 to 88 °C. Further, the inhibition of growth at 20 ppm in data set [1] is at least 80%. The molecule further returned a pest or weed control at 200 ppm in the data set on Phakopsora pachyrhizi of at least 80%. In data set [2], this molecule displayed a pest or weed control at 200 ppm of at least 80%. Moreover, the pest or weed control at 200 ppm in data set [3] is at least 80%.

For `O=C1C2C=CC(C2)N1Cc1ccc(-c2noc(C(F)(F)F)n2)cc1` (stereo not shown) [Compound A-9, 3-[[4-[5-(trifluoromethyl)-1,2,4-oxadiazol-3-yl]phenyl]methyl]-3-azabicyclo[2.2.1]hept-5-en-2-one], the melting point was 50 to 53 °C. The same molecule had an inhibition of growth at 20 ppm in data set [1] of at least 80%. In addition, the pest or weed control at 200 ppm in the data set with Phakopsora pachyrhizi was at least 80%. This molecule also gave a pest or weed control at 200 ppm in data set [2] of at least 80%. This molecule had a pest or weed control at 200 ppm in data set [3] of at least 80%.

`O=C1CCCN1Cc1ccc(-c2noc(C(F)(F)F)n2)cc1F` [Compound A-22, 1-[[2-fluoro-4-[5-(trifluoromethyl)-1,2,4-oxadiazol-3-yl]phenyl]methyl]pyrrolidin-2-one]: the melting point is 55 to 60 °C. Further, in data set [1], the inhibition of growth at 20 ppm is at least 80%. This molecule had a pest or weed control at 200 ppm in the data set on Phakopsora pachyrhizi of at least 80%. Besides, the pest or weed control at 200 ppm in data set [2] is at least 80%. This molecule also returned a pest or weed control at 200 ppm in data set [3] of at least 80%.

`CN1CC(=O)N(Cc2ccc(-c3noc(C(F)(F)F)n3)cc2)CC1=O` [Compound A-26, 1-methyl-4-[[4-[5-(trifluoromethyl)-1,2,4-oxadiazol-3-yl]phenyl]methyl]piperazine-2,5-dione] yielded a melting point of 134 to 142 °C. Besides, in data set [1], the inhibition of growth at 20 ppm was at least 80%. Further, the pest or weed control at 200 ppm in the data set on Phakopsora pachyrhizi is at least 80%. For the same molecule, the pest or weed control at 200 ppm in data set [2] was at least 80%. In addition, the pest or weed control at 200 ppm in data set [3] was at least 80%.

Molecule `CC(C)(C)OC(=O)N1CCN(Cc2ccc(-c3noc(C(F)(F)F)n3)cc2)C(=O)C1` [Compound A-30, tert-butyl 3-oxo-4-[[4-[5-(trifluoromethyl)-1,2,4-oxadiazol-3-yl]phenyl]methyl]piperazine-1-carboxylate] yielded a melting point of 96 to 99 °C. In data set [1], the inhibition of growth at 20 ppm was at least 80%. The pest or weed control at 200 ppm in data set [2] was at least 80%. Moreover, the pest or weed control at 200 ppm in data set [3] is at least 80%.

For `CNC(=O)N1CCN(Cc2ccc(-c3noc(C(F)(F)F)n3)cc2)C(=O)C1` [Compound A-33, N-methyl-3-oxo-4-[[4-[5-(trifluoromethyl)-1,2,4-oxadiazol-3-yl]phenyl]methyl]piperazine-1-carboxamide], the melting point lay in the range of 114 to 118 °C. In addition, the inhibition of growth at 20 ppm in data set [1] is at least 80%. This molecule also showed a pest or weed control at 200 ppm in the data set with Phakopsora pachyrhizi of at least 80%. In addition, in data set [2], the pest or weed control at 200 ppm is at least 80%. The same molecule yielded a pest or weed control at 200 ppm in data set [3] of at least 80%.

With `CN(C)C(=O)N1CCN(Cc2ccc(-c3noc(C(F)(F)F)n3)cc2)C(=O)C1` [Compound A-34, N,N-dimethyl-3-oxo-4-[[4-[5-(trifluoromethyl)-1,2,4-oxadiazol-3-yl]phenyl]methyl]piperazine-1-carboxamide], the melting point was in the range of 111 to 114 °C. Besides, the inhibition of growth at 20 ppm in data set [1] is at least 80%. Further, the pest or weed control at 200 ppm in the data set with Phakopsora pachyrhizi was at least 80%. This molecule also came in with a pest or weed control at 200 ppm in data set [2] of at least 80%. Further, in data set [3], the pest or weed control at 200 ppm was at least 80%.

Consider `COCCNC(=O)N1CCN(Cc2ccc(-c3noc(C(F)(F)F)n3)cc2)C(=O)C1` [Compound A-38, N-(2-methoxyethyl)-3-oxo-4-[[4-[5-(trifluoromethyl)-1,2,4-oxadiazol-3-yl]phenyl]methyl]piperazine-1-carboxamide], for which the melting point lay within 120 to 128 °C. This molecule also displayed a pest or weed control at 200 ppm with Phakopsora pachyrhizi of at least 80%. In data set [2], this molecule returned a pest or weed control at 200 ppm of at least 80%. Moreover, the pest or weed control at 200 ppm in data set [3] is at least 80%.

For `O=C1CCCCN1Cc1ccc(-c2noc(C(F)(F)F)n2)nc1` [Compound A-53, 1-[[6-[5-(trifluoromethyl)-1,2,4-oxadiazol-3-yl]-3-pyridyl]methyl]piperidin-2-one], the melting point lay within 80 to 89 °C. Besides, the pest or weed control at 200 ppm in data set [2] is at least 80%. Moreover, in data set [3], the pest or weed control at 200 ppm was at least 80%.

Turning to `CCOC(=O)N1CC(=O)N(Cc2ccc(-c3noc(C(F)(F)F)n3)cc2)C(=O)C1` [Compound A-57, ethyl 3,5-dioxo-4-[[4-[5-(trifluoromethyl)-1,2,4-oxadiazol-3-yl]phenyl]methyl]piperazine-1-carboxylate], the melting point is 89 to 92 °C. In data set [1], this molecule came in with an inhibition of growth at 20 ppm of at least 80%. The pest or weed control at 200 ppm in the data set with Phakopsora pachyrhizi was at least 80%. This molecule also came in with a pest or weed control at 200 ppm in data set [3] of at least 80%.

Molecule `CNC(=O)N1CC(=O)N(Cc2ccc(-c3noc(C(F)(F)F)n3)cc2)C(=O)C1` [Compound A-58, N-methyl-3,5-dioxo-4-[[4-[5-(trifluoromethyl)-1,2,4-oxadiazol-3-yl]phenyl]methyl]piperazine-1-carboxamide] had a melting point of 148 to 153 °C. The molecule also came in with an inhibition of growth at 20 ppm in data set [1] of at least 80%. This molecule also came in with a pest or weed control at 200 ppm in the data set with Phakopsora pachyrhizi of at least 80%. This molecule displayed a pest or weed control at 200 ppm in data set [3] of at least 80%.

For the molecule `CC(C)(C)OC(=O)N1CC(=O)N(Cc2ccc(-c3noc(C(F)(F)F)n3)cc2)C(=O)C1` [Compound A-62, tert-butyl 3,5-dioxo-4-[[4-[5-(trifluoromethyl)-1,2,4-oxadiazol-3-yl]phenyl]methyl]piperazine-1-carboxylate], the melting point was 94 to 102 °C. In data set [1], this molecule had an inhibition of growth at 20 ppm of at least 80%. The molecule also displayed a pest or weed control at 200 ppm in data set [3] of at least 80%.

`O=C1CNC(=O)N1Cc1ccc(-c2noc(C(F)(F)F)n2)cc1` [Compound A-65, 3-[[4-[5-(trifluoromethyl)-1,2,4-oxadiazol-3-yl]phenyl]methyl]imidazolidine-2,4-dione] gave a melting point of 200 to 203 °C. The inhibition of growth at 20 ppm in data set [1] is at least 80%. Further, the pest or weed control at 200 ppm in the data set with Phakopsora pachyrhizi is at least 80%. In addition, the pest or weed control at 200 ppm in data set [3] was at least 80%.

The molecule `O=C1CCON1Cc1ccc(-c2noc(C(F)(F)F)n2)c(F)c1F` [Compound A-66, 2-[[2,3-difluoro-4-[5-(trifluoromethyl)-1,2,4-oxadiazol-3-yl]phenyl]methyl]isoxazolidin-3-one] registered an inhibition of growth at 20 ppm in data set [1] of at least 80%. Further, the pest or weed control at 200 ppm (in the data set on Phakopsora pachyrhizi; in data set [2]; in data set [3]) was at least 80% throughout.

`O=C1CCON1Cc1c(F)cc(-c2noc(C(F)(F)F)n2)cc1F` [Compound A-67, 2-[[2,6-difluoro-4-[5-(trifluoromethyl)-1,2,4-oxadiazol-3-yl]phenyl]methyl]isoxazolidin-3-one] gave a melting point of 75 to 80 °C. This molecule also came in with an inhibition of growth at 20 ppm in data set [1] of at least 80%. The molecule further had a pest or weed control at 200 ppm with Phakopsora pachyrhizi of at least 80%. This molecule displayed a pest or weed control at 200 ppm in data set [2] of at least 80%.

For `O=C1CCCCCN1Cc1ccc(-c2noc(C(F)(F)F)n2)c(F)c1` [Compound A-69, 1-[[3-fluoro-4-[5-(trifluoromethyl)-1,2,4-oxadiazol-3-yl]phenyl]methyl]azepan-2-one], the melting point fell in the range of 80 to 84 °C. In addition, the inhibition of growth at 20 ppm in data set [1] was at least 80%. Besides, the pest or weed control at 200 ppm in data set [3] is at least 80%.

Regarding `O=C1CCCCCN1Cc1ccc(-c2noc(C(F)(F)F)n2)cc1` [Compound A-70, 1-[[4-[5-(trifluoromethyl)-1,2,4-oxadiazol-3-yl]phenyl]methyl]azepan-2-one], the inhibition of growth at 20 ppm in data set [1] is at least 80%. The pest or weed control at 200 ppm (in the data set with Phakopsora pachyrhizi; in data set [2]; in data set [3]) was at least 80% throughout.

Turning to `CON1CCN(c2ccc(-c3noc(C(F)(F)F)n3)cc2)C1=O` [Compound C-3, 1-methoxy-3-[4-[5-(trifluoromethyl)-1,2,4-oxadiazol-3-yl]phenyl]imidazolidin-2-one], the melting point was 185 to 190 °C. Besides, the inhibition of growth at 20 ppm in data set [1] was at least 80%.

On to `O=S1(=O)CCCN1c1ccc(-c2noc(C(F)(F)F)n2)cc1` [Compound D-1, 2-[4-[5-(trifluoromethyl)-1,2,4-oxadiazol-3-yl]phenyl]-1,2-thiazolidine 1,1-dioxide], for which the inhibition of growth at 20 ppm in data set [1] was at least 80%. The pest or weed control at 200 ppm (in the data set on Phakopsora pachyrhizi; in data set [2]; in data set [3]) was at least 80% in each case.
